Experimental data from US20090118331A1, “Use of Lobeline Epimers in the Treatment of Central Nervous System Diseases, Pathologies, and Drug Abuse” (priority 2007, published 2009).
“And” between values parts separate entries of the source, which are not always exact repeats. Equal values may be shown once.

Columns and labels:
clinical = conditions: human, in vivo
Description: Three consecutive doses of lobeline (either 30, 45 and 45 mg in the first study group, or 60, 60 and 60 mg in the second group) were administered to human volunteers at 0800, 1200 and 1600 over two full inpatient days. The pharmacokinetics of lobeline and epimer were then assessed in each subject. […] A crude index of accumulation (non-steady state) was obtained by dividing the sixth dose trough concentration by that observed for the fifth dose.

[1] = Lobeline conversion to epimer in the buffer system used at 37° C. in the VMAT2 uptake study (HPLC); type: physicochemical; conditions: for Lobeline %: VMAT2 uptake buffer, 37° C.
[2] = Lobeline conversion to epimer in the HEPES buffer system used at 25° C. in the [^3H]DTBZ binding study (HPLC); type: physicochemical; conditions: for Lobeline %: [^3H]DTBZ binding buffer, 25° C.
Description: The initial dissolution of lobeline in water was followed by a 1:1 dilution of this stock solution in the appropriate HEPES buffer system, incubation at the prescribed temperature, and HPLC assay of each epimer and potential degradants over 2 hour incubation.
After 2 hours, the 25° C.

[3] = Pharmacokinetics of lobeline and epimer in human subjects after sublingual lobeline administration (7.5, 15, 30 mg); conditions: for AUCext (percent of AUC(0-∞) determined by extrapolation) / Tlast (time of last measurable plasma concentration) / λz (terminal exponential rate constant): lobeline in plasma; for AUCext (percent of AUC(0-∞) determined by extrapolation) / Tlast (time of last measurable plasma concentration) / λz (terminal exponential rate constant) / CL/F (extravascular clearance): individual human subjects; for CL/F (extravascular clearance): lobeline
Description: The pharmacokinetics of lobeline and lobeline epimer were examined in eight human subjects (Sub) after sublingual lobeline administration.

[4] = sublingual lobeline 30.0 mg, listed as lobeline

In the case of `CN1[C@@H](CC(=O)c2ccccc2)CCC[C@H]1C[C@H](O)c1ccccc1` [Lobeline, 2-[6S-(2S-hydroxy-2-phenyl-ethyl)-1-methyl-piperidin-2R-yl]-1-phenyl-ethanone], the “time at which geometric mean plasma concentration peaked” value (clinical) is reported as 1.26 h, the “component content of solution” value ([1]; 37° C. uptake buffer with ATP-Mg2+ cofactor reduced from 2 mM to 0.4 mM, after 2 hours, with impurity) is reported as 66% and the “final component concentration (as a function of the area under the curve)” value ([1]; VMAT2 uptake buffer (HEPES), 2 hour incubation at 37° C.) is reported as 69%. For the same compound, the Lobeline % ([1]; T0, sample age 0:01) was 98.2%, the Lobeline % ([1]; T5, sample age 0:05) was 96.7% and the Lobeline % ([1]; T10, sample age 0:10) was 94.4%. It also gave a Lobeline % ([1]; T15, sample age 0:15) of 91.2%, a Lobeline % ([1]; T25, sample age 0:25) of 86.5% and a Lobeline % ([1]; T30, sample age 0:30) of 84.7%. It also gave a Lobeline % ([1]; T35, sample age 0:35) of 83.4%, a Lobeline % ([1]; T40, sample age 0:40) of 81.8% and a Lobeline % ([1]; T45, sample age 0:45) of 80.6%. The Lobeline % ([1]; T50, sample age 0:50) was 79.3%, the Lobeline % ([1]; T55, sample age 0:55) was 78.5% and the Lobeline % ([1]; T60, sample age 1:00) was 77.2%. It also gave a Lobeline % ([1]; T70, sample age 1:10) of 75.0%, a Lobeline % ([1]; T80, sample age 1:20) of 73.1% and a Lobeline % ([1]; T90, sample age 1:31) of 72.2%. The Lobeline % ([1]; T100, sample age 1:40) was 71.1%, the Lobeline % ([1]; T110, sample age 1:50) was 69.6% and the Lobeline % ([1]; T120, sample age 2:00) was 68.5%. For the same compound, the “final component concentration (as a function of the area under the curve)” value ([2]; HEPES [^3H]DTBZ binding buffer, after 2 hours at 25° C.) was 83%, the Lobeline % ([2]; T0, sample age 0:01) was 98.5% and the Lobeline % ([2]; T5, sample age 0:06) was 97.8%. It also gave a Lobeline % ([2]; T10, sample age 0:10) of 96.7%, a Lobeline % ([2]; T15, sample age 0:15) of 95.5% and a Lobeline % ([2]; T20, sample age 0:20) of 94.7%. It also gave a Lobeline % ([2]; T25, sample age 0:25) of 94.1%, a Lobeline % ([2]; T30, sample age 0:31) of 92.8% and a Lobeline % ([2]; T35, sample age 0:35) of 92.7%. For the same compound, the Lobeline % ([2]; T40, sample age 0:40) was 91.3%, the Lobeline % ([2]; T45, sample age 0:45) was 90.7% and the Lobeline % ([2]; T50, sample age 0:50) was 90.1%. It also gave a Lobeline % ([2]; T55, sample age 0:55) of 89.9%, a Lobeline % ([2]; T60, sample age 1:00) of 89.1% and a Lobeline % ([2]; T70, sample age 1:10) of 87.8%. It also gave a Lobeline % ([2]; T80, sample age 1:20) of 86.6%, a Lobeline % ([2]; T90, sample age 1:31) of 85.5% and a Lobeline % ([2]; T100, sample age 1:40) of 84.5%. For the same compound, the Lobeline % ([2]; T110, sample age 1:50) was 83.5%, the Lobeline % ([2]; T120, sample age 2:01) was 82.7% and the “dose linearity of Cmax and CL/F” value ([3]; dose range from 7.5 to 30 mg, sublingual, human) was “Linear kinetics”. For the same compound, the “Combined urinary excretion of lobeline and epimer” value ([3]; human, in vivo) was ≤ 0.5%, the AUC(0-inf) ([3]; human, in vivo, 30 mg) was 8.02 ng·h/mL and the half-life ([3]; human, in vivo, 30 mg, Terminal exponential phase half-life (T1/2), average) was ~2.4 h. The half-life ([3]; human, in vivo, 30 mg, Terminal exponential phase half-lives (T1/2 values), range) was 1 to 5 h, the Tmax ([3]; human, in vivo, 30 mg, Tmax values, range) was 0.25 to 3 h and the Tmax ([3]; human, in vivo, 30 mg, Tmax, average) was 1.4 h. The half-life ([3]; human, in vivo, mean T1/2 values, human subjects, sublingual lobeline) was ~2 h, the “equilibrium ratio of lobeline to epimer” value ([3]; humans) was 1 to 10 and the “AUCext (percent of AUC(0-∞) determined by extrapolation)” value ([3]; sublingual lobeline 7.50 mg) was 39.3% and 21.5% and 38.5% and 19.2% and 18.0% and 12.3% and 13.6% and 29.5%. The “Tlast (time of last measurable plasma concentration)” value (“Tlast” for short) ([3]; sublingual lobeline 7.50 mg) was 3.03 hr and 4.00 hr (3×) and 4.05 hr and 6.00 hr (2×) and 12.00 hr, the “λz (terminal exponential rate constant)” value ([3]; sublingual lobeline 7.50 mg) was 0.401 h⁻¹ and 0.403 h⁻¹ and 0.195 h⁻¹ and 0.295 h⁻¹ and 0.277 h⁻¹ and 0.183 h⁻¹ and 0.555 h⁻¹ and 0.367 h⁻¹ and the “AUCext (percent of AUC(0-∞) determined by extrapolation)” value ([3]; sublingual lobeline 15.0 mg) was 16.1% and 14.1% and 6.24% and 6.52% and 14.5% and 12.7% and 18.7% and 18.1%. For the same compound, the “Tlast” value ([3]; sublingual lobeline 15.0 mg) was 4.17 hr and 4.00 hr and 6.00 hr (3×) and 8.00 hr (2×) and 11.00 hr, the “λz (terminal exponential rate constant)” value ([3]; sublingual lobeline 15.0 mg) was 0.513 h⁻¹ and 0.544 h⁻¹ and 0.573 h⁻¹ and 0.341 h⁻¹ and 0.322 h⁻¹ and 0.206 h⁻¹ and 0.185 h⁻¹ and 0.321 h⁻¹ and the “Tlast” value ([3]; sublingual lobeline 30.0 mg) was 8.02 h. The “AUCext (percent of AUC(0-∞) determined by extrapolation)” value [3, 4] was 7.44% and 6.59% and 5.81% and 5.16% and 20.3% and 3.50% and 8.86% and 5.87%, the “Tlast” value [3, 4] was 4.00 h and 6.05 h and 12.17 h and 8.03 h and 22.75 h and 6.00 h and 8.00 h and the “λz (terminal exponential rate constant)” value [3, 4] was 0.878 h⁻¹ and 0.469 h⁻¹ and 0.314 h⁻¹ and 0.254 h⁻¹ and 0.149 h⁻¹ and 0.151 h⁻¹ and 0.376 h⁻¹ and 0.380 h⁻¹. The “CL/F (extravascular clearance)” value ([3]; sublingual lobeline 7.50 mg) was 2328 mL/min/kg and 844 mL/min/kg and 1116 mL/min/kg and 623 mL/min/kg and 792 mL/min/kg and 179 mL/min/kg and 1502 mL/min/kg and 1051 mL/min/kg, the “CL/F (extravascular clearance)” value ([3]; sublingual lobeline 15.0 mg) was 1995 mL/min/kg and 866 mL/min/kg and 1364 mL/min/kg and 550 mL/min/kg and 1183 mL/min/kg and 188 mL/min/kg and 1194 mL/min/kg and 1068 mL/min/kg and the “CL/F (extravascular clearance)” value ([3]; sublingual lobeline 30.0 mg) was 1809 mL/min/kg and 1169 mL/min/kg and 1269 mL/min/kg and 572 mL/min/kg and 1736 mL/min/kg and 162 mL/min/kg and 2340 mL/min/kg and 857 mL/min/kg.
